In brackets after ≈: the same amount, converted by molar mass. Like-named read-outs stand apart in the source and are kept apart here.
Tests used:
[1] = tested on: Ent. aerog.; test: MIC in brain heart infusion (BHI) broth; format: cell-based; details: strain 040
[2] = tested on: Kleb. pn.; test: MIC in brain heart infusion (BHI) broth; format: cell-based; details: for MIC: strain 009
[3] = tested on: E. coli; test: MIC in brain heart infusion (BHI) broth; format: cell-based; details: Escherichia coli
[4] = tested on: Past. mult.; test: MIC in brain heart infusion (BHI) broth; format: cell-based; details: strain 001
Source text: (§1) Generally twelve 2 fold dilutions of the test compound. are employed, with initial concentration of the test drug being in the range of 50 to 200 mcg/ml. The susceptibility (MIC) of the test organism is accepted as the lowest concentration of compound capable of producing complete inhibition of growth as judged by the naked eye.

[5] = tested on: Prov. strua.; test: MIC in brain heart infusion (BHI) broth; format: cell-based; details: strain 013
Source text: as §1

[6] = tested on: Strep. faec.; test: MIC in brain heart infusion (BHI) broth; format: cell-based; details: strain 006
Source text: as §1

[7] = tested on: Serr. mar.; test: MIC in brain heart infusion (BHI) broth; format: cell-based; details: strain 017
Source text: as §1

[8] = tested on: Staph. epi; test: MIC in brain heart infusion (BHI) broth; format: cell-based; details: strain 111
Source text: as §1

[9] = tested on: H. influ.; test: MIC in brain heart infusion (BHI) broth; format: cell-based
Source text: as §1

[10] = tested on: Neiss. sic.; test: MIC in brain heart infusion (BHI) broth; format: cell-based; details: strain 000
Source text: as §1

[11] = tested on: Ent. cloac.; test: MIC in brain heart infusion (BHI) broth; format: cell-based; details: strain 009
Source text: as §1

[12] = tested on: Strep. pyog.; test: MIC in brain heart infusion (BHI) broth; format: cell-based; details: strain 203
Source text: as §1

[13] = tested on: Staph. aur.; test: MIC in brain heart infusion (BHI) broth; format: cell-based
Source text: as §1

[14] = tested on: Kleb. oxy.; test: MIC in brain heart infusion (BHI) broth; format: cell-based; details: strain 024
Source text: as §1

[15] = Microbiological (bioassay) determination of serum levels after oral dosage; format: in vivo; details: mice
Protocol: Additionally, the compounds (II) and (VI) are tested in vivo by the well-known mouse protection test, or by a microbiological (bioassay) determination of serum levels in a variety of mammals (e.g., mouse, rat, dog).

[16] = strain 036, read-out: MIC Values
[17] = strain 038, read-out: MIC Values
[18] = strain 042, read-out: MIC Values
[19] = strain 051, read-out: MIC Values
[20] = strain 073, read-out: MIC Values
[21] = strain 078, read-out: MIC Values
[22] = strain 081, read-out: MIC Values

| SMILES | MIC [1] | MIC [2] | MIC ([3]; strain 125) | MIC ([3]; strain 129) | MIC ([3]; strain 266) | MIC ([3]; strain 470) | MIC [4] | MIC [5] | MIC [6] | MIC [7] | MIC [8] | MIC [11] | MIC [12] | MIC ([13]; strain 005) | MIC ([13]; strain 052) | MIC ([13]; strain 400) | MIC [14] | MIC [9, 16] | MIC [9, 17] | MIC [9, 18] | further results |
| --- | --- | --- | --- | --- | --- | --- | --- | --- | --- | --- | --- | --- | --- | --- | --- | --- | --- | --- | --- | --- | --- |
| CC[C@H]1OC(=O)[C@H](C)[C@@H](O[C@H]2C[C@@](C)(OC)[C@@H](O)[C@H](C)O2)[C@H](C)[C@@H](O[C@@H]2O[C@H](C)C[C@H](N(C)C)[C@H]2O)[C@](C)(O)C[C@@H](C)C(=O)[C@H](C)[C@@H](O)[C@]1(C)O [(1), Erythromycin A] | > 50 µg/mL | > 50 µg/mL | > 50 µg/mL | > 50 µg/mL | > 50 µg/mL | 1.56 µg/mL (≈ 2.13 µM) | 0.78 µg/mL (≈ 1.06 µM) | > 50 µg/mL | 0.39 µg/mL (≈ 0.531 µM) | > 50 µg/mL | 0.05 µg/mL (≈ 0.0681 µM) | > 50 µg/mL | 0.025 µg/mL (≈ 0.0341 µM) | 0.05 µg/mL (≈ 0.0681 µM) | 0.1 µg/mL (≈ 0.136 µM) | 6.25 µg/mL (≈ 8.52 µM) | > 50 µg/mL | – | – | – | MIC ([9]; read-out: MIC Values, strain 012): 3.12 µg/mL (≈ 4.25 µM); MIC ([9]; read-out: MIC Values, strain 036): 3.12 µg/mL (≈ 4.25 µM); MIC ([9]; read-out: MIC Values, strain 038): 1.56 µg/mL (≈ 2.13 µM); MIC ([9]; read-out: MIC Values, strain 042): 3.12 µg/mL (≈ 4.25 µM); MIC ([9]; read-out: MIC Values, strain 051): 3.12 µg/mL (≈ 4.25 µM); MIC ([9]; read-out: MIC Values, strain 073): 3.12 µg/mL (≈ 4.25 µM); MIC ([9]; read-out: MIC Values, strain 078): 1.56 µg/mL (≈ 2.13 µM); MIC ([9]; read-out: MIC Values, strain 081): 3.12 µg/mL (≈ 4.25 µM); MIC [10]: 3.12 µg/mL (≈ 4.25 µM) |
| CC[C@H]1OC(=O)[C@H](C)[C@@H](O[C@H]2C[C@@](C)(OC)[C@@H](O)[C@H](C)O2)[C@H](C)[C@@H](O[C@@H]2O[C@H](C)C[C@H](N(C)C)[C@H]2O)[C@](C)(O)C[C@@H](C)CN(C)[C@H](C)[C@@H](O)[C@]1(C)O [(2), 9-Deoxo-9a-methyl-9a-aza-9a-homoerythromycin A] | – | – | – | 6.25 µg/mL (≈ 8.34 µM) | 6.25 µg/mL (≈ 8.34 µM) | 0.78 µg/mL (≈ 1.04 µM) | 0.1 µg/mL (≈ 0.134 µM) | 50 µg/mL (≈ 66.8 µM) | 1.56 µg/mL (≈ 2.08 µM) | – | 0.1 µg/mL (≈ 0.134 µM) | 25 µg/mL (≈ 33.4 µM) | 0.025 µg/mL (≈ 0.0334 µM) | 0.2 µg/mL (≈ 0.267 µM) | 0.39 µg/mL (≈ 0.521 µM) | 25 µg/mL (≈ 33.4 µM) | 25 µg/mL (≈ 33.4 µM) | 0.78 µg/mL (≈ 1.04 µM) | 0.78 µg/mL (≈ 1.04 µM) | 0.78 µg/mL (≈ 1.04 µM) | MIC [9, 19]: 1.56 µg/mL (≈ 2.08 µM); MIC [9, 20]: 0.78 µg/mL (≈ 1.04 µM); MIC [9, 21]: 0.39 µg/mL (≈ 0.521 µM); MIC [9, 22]: 0.78 µg/mL (≈ 1.04 µM) |
| CC[C@H]1OC(=O)[C@H](C)[C@@H](O[C@H]2C[C@@](C)(OC)[C@@H](O)[C@H](C)O2)[C@H](C)[C@@H](O[C@@H]2O[C@H](C)C[C@H](N(C)C)[C@H]2O)[C@](C)(O)C[C@@H](C)CN(C)[C@H](C)[C@@H](O)[C@H]1C [compound (II), 9-Deoxo-9a-methyl-9a-aza-9a-homoerythromycin B] | > 50 µg/mL | 50 µg/mL (≈ 68.2 µM) | 50 µg/mL (≈ 68.2 µM) | 25 µg/mL (≈ 34.1 µM) | 25 µg/mL (≈ 34.1 µM) | 0.39 µg/mL (≈ 0.532 µM) | 0.1 µg/mL (≈ 0.136 µM) | > 50 µg/mL | 1.56 µg/mL (≈ 2.13 µM) | > 50 µg/mL | 0.2 µg/mL (≈ 0.273 µM) | > 50 µg/mL | 0.025 µg/mL (≈ 0.0341 µM) | 0.39 µg/mL (≈ 0.532 µM) | 0.39 µg/mL (≈ 0.532 µM) | > 50 µg/mL | 50 µg/mL (≈ 68.2 µM) | 3.12 µg/mL (≈ 4.26 µM) | 3.12 µg/mL (≈ 4.26 µM) | 1.56 µg/mL (≈ 2.13 µM) | MIC Values ([2]; strain 031): 50 µg/mL (≈ 68.2 µM); absorption after oral dosage [15]: exceptionally well absorbed; serum levels [15]: exceptionally high and long lasting; MIC ([9]; strain 012, read-out: MIC Values): 1.56 µg/mL (≈ 2.13 µM); MIC [9, 19]: 3.12 µg/mL (≈ 4.26 µM); MIC [9, 20]: 0.2 µg/mL (≈ 0.273 µM); MIC [9, 21]: 0.78 µg/mL (≈ 1.06 µM); MIC [9, 22]: 1.56 µg/mL (≈ 2.13 µM) |

From EP0136831A2, “Azahomoerythromycin B derivatives and intermediates thereof” (PFIZER INC., priority 1983, dated 1985)
